From patent publication US20120142596A1, “AGENT FOR STIMULATING MOBILIZATION OF ENDOTHELIAL PROGENITOR CELLS” (priority 2009, published 2012) come the findings set out here.

In series [1] the test system is EPCs. The experiment in a line: Immunohistochemical staining of cells cultured from peripheral blood with EPC markers CD34 and UEA. Format: cell-based, New Zealand white rabbits. The settings on record: cells cultured from peripheral blood after intravenous SP, fluorescence microscopy. As for the experimental part:
In order to examine the presence of EPCs in peripheral blood using the EPC markers CD34 and UEA, EPCs (2×10^4 cells/well) that have been isolated and cultured from the above blood were incubated on cover slips for CD34 test and UEA test, respectively. After incubation in a 5% CO2 incubator at 37° C. for 24 hours, the cells were washed with PBS. Then, the cells were fixed with 3.7% paraformaldehyde and washed again with PBS.
The washed cells were blocked with 20% goat serum and treated with anti-CD 34 antibody at room temperature for 1 hour. Then, the cells were washed again with PBS and treated with FITC-conjugated anti-mouse IgG at room temperature for 1 hour. To remove excess of antibodies, the cells were washed with PBS, counterstained with DAPI, and then mounted.
The washed cells were blocked with 20% goat serum and treated with UEA-biotin at room temperature for 1 hour. Then, the cells were washed again with PBS and treated with streptavidin-FITC at room temperature for 1 hour. The cells were washed with PBS, counterstained with DAPI, and then mounted.
For negative control in immune fluorescence staining, cultured cells were treated with only secondary antibody, and the expression thereof was observed (FIG. 2C).

The subject of series [2] is endothelial progenitor cells. The experiment in a line: Comparison of EPC colony formation in peripheral blood after intravenous administration of SP and G-CSF. Format: in vivo, New Zealand white rabbits. To be noted: rabbit. The method, then: (§1) According to the same method described in Example 1-(1), 0.1 ml of SP was administered to one rabbit group (New Zealand white rabbits, male, 2.5 kg, n=3), and 0.1 ml of G-CSF (CJ Pharma, Leukokine inj. 150; 2.5 μg/kg) as a positive control was administered to another rabbit group (New Zealand white rabbits, male, 2.5 kg, n=3). 1, 2 and 3 days after the administration, 5-15 ml of peripheral blood was isolated from each animal group. The isolated blood was two-fold diluted in PBS and carefully placed on Ficoll contained in a tube (Ficoll: peripheral blood=1:1 v/v). Then, the cell dilution was centrifuged at 2200 rpm for 25 minutes. The uppermost plasma layer was removed, and only the mononuclear cell layer was separated from the tube and transferred into a new tube. 30 ml of PBS was added to the obtained mononuclear cell layer and centrifuged at 1500 rpm for 5 minutes (washing step). The cells were suspended in EGM-2 (endothelial growth medium-2, Lonza), and the suspended cells were seeded on a 100-mm dish (Falcon) coated with fibronectin and were cultured in EGM-2 (endothelial growth medium-2, Lonza) for 2 weeks (5% CO2 and 37° C.). After the culture, the produced colonies were stained with toluidine blue and counted.

The test system of series [3] is endothelial progenitor cells. Description: EPC mobilization to peripheral blood after intravenous administration (EPC colony count). In kind it is in vivo, New Zealand white rabbits. To be noted: rabbit, 5 nmole/kg i.v. twice (0 and 24 h), blood 3 days after first injection, 2 weeks culture, vs PBS control. The method, then:
Ketamine hydrochloride (50 mg/ml Yuhan, Korea) and Rompun (xylazine hydrochloride, 23.32 mg/ml Bayer Korea) were mixed at a ratio of 2:1, and then 900 μl of the mixture (600 μl of ketamine hydrochloride and 300 μl of Rompun) was injected intramuscularly into New Zealand white rabbits (male, 2.5 kg, n=3). 10 minutes after the intramuscular injection, the same anesthetic (200 μl of ketamine hydrochloride and 100 μl of Rompun) was injected intravenously into the ear vein of each rabbit to completely anesthetize the rabbits. Then, 5 nmole/kg of SP was dissolved in physiological saline solution, and 1 ml of the solution was administered slowly into the ear vein of one rabbit group. As a control, 1 ml of 1×PBS was administered into the ear vein of another rabbit group. 24 hours after the administration, the same amount of each of SP and 1×PBS was injected once more.
3 days after the first injection, peripheral blood was collected from the ear blood vessels of the rabbits, and 10 ml of the collected blood was two-fold diluted in PBS, and then carefully placed on Ficoll contained in a tube (Ficoll: peripheral blood=1:1 v/v). Next, the blood dilution was centrifuged at 2200 rpm for 25 minutes. As a result, a red blood cell (RBC) layer, a ficoll layer, a mononuclear cell layer and a plasma layer, from bottom to top, were formed. […]

For series [4], the system named is EPCs. The experiment in a line: Ability to form tubes in vitro on Matrigel of EPCs cultured from blood after SP. In kind it is cell-based, New Zealand white rabbits. To be noted: EPCs from peripheral blood after intravenous SP, 12 hours. The method, then:
In order to examine the blood vessel-forming ability of the EPCs that have been isolated and cultured from the blood, the cells were cultured on Matrigel (BD). For this purpose, 200 μl of Matrigel was added to each well of a 96-well plate and incubated at 37° C. for 30 minutes. The cells were added to each well containing Matrigel at a density of 2×10^4 and cultured for 12 hours. When mesenchymal stem cells (MSCs) were cultured in the same manner as described above, colonies were formed as shown in FIG. 4B.

Series [5] deals with inflammatory cells (neutrophils, eosinophils and monocytes). Description: Complete blood cell count of peripheral blood after intra-bone marrow administration. Format: in vivo, New Zealand white rabbits. To be noted: rabbit, intra-bone marrow administration, 1, 2 and 3 days.
Series [6] concerns endothelial progenitor cells. The experiment in a line: Comparison of EPC colony formation in peripheral blood after intra-bone marrow administration of SP and G-CSF. Format: in vivo, New Zealand white rabbits. The settings on record: rabbit, intra-bone marrow administration, 1, 2 and 3 days, compared to G-CSF. As for the experimental part:
as §1, with “2-(2),” for “1-(1),”

Series [7] deals with endothelial progenitor cells. The experiment in a line: EPC CFU in bone marrow aspirate after intra-bone marrow administration. To be noted: rabbit, intra-bone marrow injection, bone marrow aspirate 24 hours after injection, 1 week culture; for increase in amount of mobilized EPCs (CFU) compared to negative control group: SP 4 nmole/kg, G-CSF 2.5 μg/kg. In kind it is in vivo, New Zealand white rabbits. The method, then:
Ketamine hydrochloride (50 mg/ml Yuhan, Korea) and Rompun (xylazine hydrochloride, 23.32 mg/ml Bayer Korea) were mixed at a ratio of 2:1, and then 900 μl of the mixture (600 μl of ketamine hydrochloride and 300 μl of Rompun) was injected intramuscularly into New Zealand white rabbits (male, 2.5 kg, n=4). 5 minutes after the intramuscular injection, the same anesthetic (200 μl of ketamine hydrochloride and 100 μl of Rompun) was injected intravenously into the ear of each rabbit to completely anesthetize the rabbits.
SP (Sigma, 4 nmole/kg in saline) was injected into the right iliac crest of one rabbit group at an injection volume of 0.1 ml using a 18G spinal needle.
As a negative control, 1×PBS was injected into the left iliac crest of another rabbit group at an injection volume of 0.1 ml using a 18G spinal needle. As a positive control, G-CSF (CJ Pharma Leukokine Inj. 150; 2.5 μg/kg) was injected into the right iliac crest at an injection volume of 0.1 ml using a 18G spinal needle.
24 hours after the injection, 4 ml of a bone marrow aspirate was isolated from the bone marrow, two-fold diluted in PBS, and then carefully placed on Ficoll (GE Health care) contained in a tube (Ficoll: bone marrow aspirate=1:1 v/v). Then, the cell dilution was centrifuged at 2200 rpm for 25 minutes. As a result, a red blood cell layer, a ficoll layer, a mononuclear cell layer and a plasma layer, from bottom to top, were formed. After removing the plasma layer, only the mononuclear cell layer was separated and transferred into a new tube. 30 ml of PBS was added to the obtained mononuclear cell layer and centrifuged again (washing step).
The isolated cells were seeded on a 100-mm dish (Falcon) coated with fibronectin and were cultured in EGM-2 (Endothelial growth medium-2, Lonza) for 1 week (5% CO2 and 37° C.). After the culture, the CFU of the cells was measured and compared with those of the group injected with PBS and the group injected with the positive control G-CSF.

The test system of series [8] is inflammatory cells (neutrophils and monocytes). Description: Complete blood cell count of peripheral blood after intravenous administration. In kind it is in vivo, New Zealand white rabbits. To be noted: rabbit, intravenous administration, 1, 2 and 3 days, vs PBS control. As for the experimental part: 1 ml of each of the peripheral bloods obtained 1, 2 and 3 days after intravenous administration of SP and G-CSF was placed in an EDTA-containing vial and mixed well to prevent clotting. In the experiment for isolating EPCs from blood cells, the complete blood cell counting of each blood was performed by Royal ARC (Korea) under the same conditions for each blood.

Substance-P [SP]: the “presence of EPCs in peripheral blood by EPC markers CD34 and UEA” value with EPCs [1] is listed as “contained a large amount of EPCs”. In addition, the “amount of EPCs in peripheral blood over 1, 2 and 3 days” value in series [2] (days 1-3) is reported as “continuously increased”. In addition, the “amount of EPCs in peripheral blood (colonies)” value in series [3] was “significantly increased”. In addition, the “ability to form tubes in vitro” value with EPCs [4] is on record as “had the ability to form blood vessels”. Further, in series [5], the “inflammatory cells (neutrophils, eosinophils and monocytes) in peripheral blood” value is “without causing side effects such as inflammation”. Further, the “effect of stimulating EPC mobilization (EPC colonies in peripheral blood)” value in series [6] was “excellent effect of stimulating EPC mobilization compared to G-CSF”. Besides, in series [7], the “increase in amount of mobilized EPCs (CFU) compared to group administered with positive control G-CSF” value is recorded as “about 3 fold” and the “increase in amount of mobilized EPCs (CFU) compared to negative control group” value is recorded as 10-12 fold.

B1: G-CSF: positive control, CJ Pharma Leukokine Inj. 150; known EPC mobilization factor (protein, UniProt P09919 31-207, looked up)
Granulocyte …: TPLGPASSLPQSFLLKCLEQVRKIQGDGAALQEKLVSECATYKLCHPEELVLLGHSLGIPWAPLSSCPSQALQLAGCLSQLHSGLFLYQGLLQALEGISPELGPTLDTLQLDVADFATTIWQQMEELGMAPALQPTQGAMPAFASAFQRRAGGVLVASHLQSFLEVSYRVLRHLAQP
Consider B1, for which, in series [8], the “inflammatory cells (neutrophils and monocytes) in peripheral blood” value is listed as “significantly increased”. Besides, the “EPCs in peripheral blood after the second day” value in series [2] (after the second day) is “no EPCs were found”. Moreover, the “EPCs in peripheral blood at the first day” value in series [2] (day 1) was “temporarily increased”. In series [5], the “inflammatory cells (neutrophils, eosinophils and monocytes) in peripheral blood” value was “significantly increased”. Besides, the “increase in amount of mobilized EPCs (CFU) compared to negative control group” value in series [7] is reported as “about 4 fold”.
